Laboratory results reported in ChEMBL document CHEMBL5634100, “Novel spiro[pyrrolidine-2,3'-quinoline]-2'-one derivatives containing piperazine fragment as potential chitin synthase inhibitors and antifungal agents: Design, synthesis and biological evaluation” (Eur J Med Chem, 2023).
Converted amounts (≈) assume the structure as drawn. The source made the active and inactive calls. The calls are words filed in the database; no cut-off is given here. Numbered stars: 1 amine (or outer) side, 2 acyl side, 3 side chain; on linkers, the order of the positions; unused ones are H or OH. Bridge positions count the residues as written; N and C are the ends. Square brackets hold non-standard residues; d marks the D form. Peptide text beside a SMILES is read from it. * marks the point of attachment. hTyr(3S-OH,4S-OH,3'-OSO3H) = N[C@H](C(=O)O)[C@H](O)[C@@H](O)c1ccc(O)c(OS(=O)(=O)O)c1; Orn(4R-OH,5R-OH) = O=C([C@H](C[C@@H](O)[C@@H](O)N[*:3])N[*:1])[*:2]; Pro(3S-OH,4S-Me) = C[C@H]1CN[C@H](C(=O)O)[C@H]1O; X1 = CCCCCOc1ccc(-c2cc(-c3ccc(C(=O)*)cc3)no2)cc1; Gln(3R-OH) = NC(=O)C[C@@H](O)[C@H](N)C(=O)O; Hyp = O=C(O)[C@@H]1C[C@@H](O)CN1

What was measured:
Candida tropicalis [1] = assay: Non-competitive inhibition of Candida tropicalis ATCC 750 chitin synthase using UDP-GlcNAc as substrate assessed as decrease in Vmax with constant Km by Lineweaver-Burk plot analysis
Candida albicans [2] = assay: Antimicrobial activity against fluconazole-resistant Candida albicans ATCC 76615R incubated for 24 hrs by two fold serial dilution method; format: functional
Candida albicans [3] = assay: Antimicrobial activity against micafungin-resistant Candida albicans ATCC 76615R incubated for 24 hrs by two fold serial dilution method; format: functional
Candida albicans [4] = assay: Antimicrobial activity against Candida albicans ATCC 76615 incubated for 24 hrs by two fold serial dilution method; format: functional
[5] = Inhibition of Candida tropicalis ATCC 750 chitin synthase using UDP-GlcNAc as substrate by TMB based microplate analyzer
Aspergillus flavus [6] = assay: Antimicrobial activity against Fluconazole-resistant Aspergillus flavus ATCC 16870R incubated for 24 hrs by two fold serial dilution method; format: functional
Aspergillus flavus [7] = assay: Antimicrobial activity against Aspergillus flavus ATCC 16870 incubated for 24 hrs by two fold serial dilution method; format: functional
Aspergillus fumigatus [8] = assay: Antimicrobial activity against Fluconazole-resistant Aspergillus fumigatus GIMCC 3.19R incubated for 24 hrs by two fold serial dilution method; format: functional
[9] = Binding affinity to Candida tropicalis ATCC 750 chitin synthase assessed as inhibition constant by Lineweaver-Burk plot analysis
Cryptococcus neoformans [10] = assay: Antimicrobial activity against Cryptococcus neoformans ATCC 32719 incubated for 24 hrs by two fold serial dilution method; format: functional
Aspergillus flavus [11] = assay: Antimicrobial activity against Aspergillus flavus ATCC 16870 assessed as inhibition of cell wall synthesis in presence of sorbitol; format: functional
Aspergillus fumigatus [12] = assay: Antimicrobial activity against Aspergillus fumigatus GIMCC 3.19 assessed as inhibition of cell wall synthesis in presence of sorbitol; format: functional
Cryptococcus neoformans [13] = assay: Antimicrobial activity against Cryptococcus neoformans ATCC 32719 assessed as inhibition of cell wall synthesis in presence of sorbitol; format: functional
Cryptococcus neoformans [14] = assay: Antimicrobial activity against Fluconazole-resistant Cryptococcus neoformans ATCC 32719R incubated for 24 hrs by two fold serial dilution method; format: functional
Candida tropicalis [15] = assay: Inhibition of Candida tropicalis ATCC 750 chitin synthase using UDP-GlcNAc as substrate at 300 ug/ml by TMB based microplate analyzer relative to control; details: dose 300.0 µg/ml
Aspergillus fumigatus [16] = assay: Antimicrobial activity against Aspergillus fumigatus GIMCC 3.19 incubated for 24 hrs by two fold serial dilution method; format: functional
Candida albicans [17] = assay: Antimicrobial activity against Candida albicans ATCC 76615 assessed as inhibition of cell wall synthesis in presence of sorbitol; format: functional
Aspergillus flavus [18] = assay: Antimicrobial activity against Aspergillus flavus ATCC 16870 incubated for 24 hrs in presence of fluconazole by checkerboard method; format: functional
Cryptococcus neoformans [19] = assay: Antimicrobial activity against Cryptococcus neoformans ATCC 32719 incubated for 24 hrs in presence of fluconazole by checkerboard method; format: functional
Aspergillus fumigatus [20] = assay: Antimicrobial activity against Aspergillus fumigatus GIMCC 3.19 incubated for 24 hrs in presence of fluconazole by checkerboard method; format: functional
Aspergillus flavus [21] = assay: Synergistic antimicrobial activity against Aspergillus flavus ATCC 16870 assessed as fractional inhibitory concentration index incubated for 24 hrs in presence of fluconazole by checkerboard method; format: functional
Cryptococcus neoformans [22] = assay: Antimicrobial activity against Cryptococcus neoformans ATCC 32719 incubated for 24 hrs in presence of polyoxin B by checkerboard method; format: functional
Candida albicans [23] = assay: Antimicrobial activity against Candida albicans ATCC 76615 incubated for 24 hrs in presence of polyoxin B by checkerboard method; format: functional
Candida albicans [24] = assay: Synergistic antimicrobial activity against Candida albicans ATCC 76615 assessed as fractional inhibitory concentration index incubated for 24 hrs in presence of fluconazole by checkerboard method; format: functional
Cryptococcus neoformans [25] = assay: Additive antimicrobial activity against Cryptococcus neoformans ATCC 32719 assessed as fractional inhibitory concentration index incubated for 24 hrs in presence of fluconazole by checkerboard method; format: functional
Aspergillus fumigatus [26] = assay: Synergistic antimicrobial activity against Aspergillus fumigatus GIMCC 3.19 assessed as fractional inhibitory concentration index incubated for 24 hrs in presence of polyoxin B by checkerboard method; format: functional
Candida albicans [27] = assay: Synergistic antimicrobial activity against Candida albicans ATCC 76615 assessed as fractional inhibitory concentration index incubated for 24 hrs in presence of polyoxin B by checkerboard method; format: functional
Cryptococcus neoformans [28] = assay: Additive antimicrobial activity against Cryptococcus neoformans ATCC 32719 assessed as fractional inhibitory concentration index incubated for 24 hrs in presence of polyoxin B by checkerboard method; format: functional
Aspergillus flavus [29] = assay: Antimicrobial activity against Aspergillus flavus ATCC 16870 incubated for 24 hrs in presence of polyoxin B by checkerboard method; format: functional
Candida albicans [30] = assay: Antimicrobial activity against Candida albicans ATCC 76615 incubated for 24 hrs in presence of fluconazole by checkerboard method; format: functional
Aspergillus fumigatus [31] = assay: Synergistic antimicrobial activity against Aspergillus fumigatus GIMCC 3.19 assessed as fractional inhibitory concentration index incubated for 24 hrs in presence of fluconazole by checkerboard method; format: functional
Aspergillus fumigatus [32] = assay: Antimicrobial activity against Aspergillus fumigatus GIMCC 3.19 incubated for 24 hrs in presence of polyoxin B by checkerboard method; format: functional
Aspergillus flavus [33] = assay: Synergistic antimicrobial activity against Aspergillus flavus ATCC 16870 assessed as fractional inhibitory concentration index incubated for 24 hrs in presence of polyoxin B by checkerboard method; format: functional

SMILES | MIC (Candida albicans [2]) | MIC (Candida albicans [3]) | MIC (Candida albicans [4]) | IC50 [5] | MIC (Aspergillus flavus [6]) | MIC (Aspergillus flavus [7]) | MIC (Aspergillus fumigatus [8]) | MIC (Cryptococcus neoformans [10]) | MIC (Aspergillus flavus [11]) | MIC (Aspergillus fumigatus [12]) | MIC (Cryptococcus neoformans [13]) | MIC (Cryptococcus neoformans [14]) | inhibition (Candida tropicalis [15]) | MIC (Aspergillus fumigatus [16]) | MIC (Candida albicans [17]) | other results
O=C(c1cccc([N+](=O)[O-])c1)N1CCN(CC(=O)N2CCCC23Cc2ccccc2NC3=O)CC1 (centres undefined) | 64 mg/L (≈ 134 µM) | 64 mg/L (≈ 134 µM) | 4 mg/L (≈ 8.38 µM) | 120 µM | 32 mg/L (≈ 67 µM) | 4 mg/L (≈ 8.38 µM) | 64 mg/L (≈ 134 µM) | 32 mg/L (≈ 67 µM) | 128 mg/L | 64 mg/L | 256 mg/L | 64 mg/L (≈ 134 µM) | 81.2% | 8 mg/L (≈ 16.8 µM) | 128 mg/L | inhibition (Candida tropicalis [1]): Active; Ki [9]: 140 µM
O=C(c1cc(Cl)ccc1Cl)N1CCN(CC(=O)N2CCCC23Cc2ccccc2NC3=O)CC1 (centres undefined) | 64 mg/L (≈ 128 µM) | 32 mg/L (≈ 63.8 µM) | 4 mg/L (≈ 7.98 µM) | 180 µM | 64 mg/L (≈ 128 µM) | 8 mg/L (≈ 16 µM) | 64 mg/L (≈ 128 µM) | 8 mg/L (≈ 16 µM) | 32 mg/L | 64 mg/L | 128 mg/L | 64 mg/L (≈ 128 µM) | 67.6% | 8 mg/L (≈ 16 µM) | 64 mg/L | 
Cc1ccc(C(=O)N2CCN(CC(=O)N3CCCC34Cc3ccccc3NC4=O)CC2)cc1 (centres undefined) |  |  | 16 mg/L (≈ 35.8 µM) |  |  | 16 mg/L (≈ 35.8 µM) |  | 64 mg/L (≈ 143 µM) |  |  |  |  | 52.3% | 32 mg/L (≈ 71.7 µM) |  | 
NC(=O)OC[C@H](O)[C@@H](O)[C@H](N)C(=O)N[C@H](C(=O)O)[C@H]1O[C@@H](n2cc(CO)c(=O)[nH]c2=O)[C@H](O)[C@@H]1O [POLYOXIN B] |  |  | 8 mg/L (≈ 15.8 µM) | 90 µM |  | 8 mg/L (≈ 15.8 µM) |  | 16 mg/L (≈ 31.5 µM) | 64 mg/L | 64 mg/L | 128 mg/L |  | 86.1% | 8 mg/L (≈ 15.8 µM) | 64 mg/L | 
O=C(c1ccc(F)cc1)N1CCN(CC(=O)N2CCCC23Cc2ccccc2NC3=O)CC1 (centres undefined) | 64 mg/L (≈ 142 µM) | 64 mg/L (≈ 142 µM) | 4 mg/L (≈ 8.88 µM) | 130 µM | 64 mg/L (≈ 142 µM) | 8 mg/L (≈ 17.8 µM) | 64 mg/L (≈ 142 µM) | 16 mg/L (≈ 35.5 µM) | 64 mg/L | 256 mg/L | 128 mg/L | 64 mg/L (≈ 142 µM) | 76.7% | 8 mg/L (≈ 17.8 µM) | 64 mg/L | 
CCCCCOc1ccc(-c2cc(-c3ccc(C(=O)N[C@H]4C[C@@H](O)[C@@H](O)NC(=O)[C@@H]5[C@@H](O)[C@@H](C)CN5C(=O)[C@H]([C@H](O)CC(N)=O)NC(=O)[C@H]([C@H](O)[C@@H](O)c5ccc(O)c(OS(=O)(=O)O)c5)NC(=O)[C@@H]5C[C@@H](O)CN5C(=O)[C@H]([C@@H](C)O)NC4=O)cc3)no2)cc1 [MICAFUNGIN] (X1-[Orn(4R-OH,5R-OH)]T[Hyp][hTyr(3S-OH,4S-OH,3'-OSO3H)][Gln(3R-OH)][Pro(3S-OH,4S-Me)]; lactam 1-C) |  | > 256 mg/L |  |  |  |  |  |  |  |  |  |  |  |  |  | 
O=C(c1c(F)cccc1F)N1CCN(CC(=O)N2CCCC23Cc2ccccc2NC3=O)CC1 (centres undefined) | 64 mg/L (≈ 137 µM) | 64 mg/L (≈ 137 µM) | 1 mg/L (≈ 2.13 µM) | 110 µM | 64 mg/L (≈ 137 µM) | 2 mg/L (≈ 4.27 µM) | 64 mg/L (≈ 137 µM) | 8 mg/L (≈ 17.1 µM) | 256 mg/L | 64 mg/L | 256 mg/L | 128 mg/L (≈ 273 µM) | 83.4% | 0.5 mg/L (≈ 1.07 µM) | 128 mg/L | MIC (Aspergillus flavus [18]): 4 mg/L; MIC (Cryptococcus neoformans [19]): 1 mg/L; MIC (Aspergillus fumigatus [20]): 2 mg/L; fractional inhibitory concentration index (FICI) (Aspergillus flavus [21]): 0.75; MIC (Cryptococcus neoformans [22]): 2 mg/L; MIC (Candida albicans [23]): 1 mg/L; fractional inhibitory concentration index (FICI) (Candida albicans [24]): 0.75; fractional inhibitory concentration index (FICI) (Cryptococcus neoformans [25]): 1.125; fractional inhibitory concentration index (FICI) (Aspergillus fumigatus [26]): 0.75; fractional inhibitory concentration index (FICI) (Candida albicans [27]): 0.625; fractional inhibitory concentration index (FICI) (Cryptococcus neoformans [28]): 1.125; MIC (Aspergillus flavus [29]): 1 mg/L; MIC (Candida albicans [30]): 1 mg/L; fractional inhibitory concentration index (FICI) (Aspergillus fumigatus [31]): 0.625; MIC (Aspergillus fumigatus [32]): 2 mg/L; fractional inhibitory concentration index (FICI) (Aspergillus flavus [33]): 0.375
O=C(c1ccccc1Cl)N1CCN(CC(=O)N2CCCC23Cc2ccccc2NC3=O)CC1 (centres undefined) |  |  | 16 mg/L (≈ 34.3 µM) |  |  | 16 mg/L (≈ 34.3 µM) |  | 32 mg/L (≈ 68.5 µM) |  |  |  |  | 61.4% | 16 mg/L (≈ 34.3 µM) |  | 
